Laboratory results as given in patent US11965041B2, “N-methylated cyclic peptides and their prodrugs” (TECHNISCHE UNIVERSITAET MUENCHEN, priority 2017, dated 2024).
Numbered stars: 1 amine (or outer) side, 2 acyl side, 3 side chain; on linkers, the order of the positions; unused ones are H or OH. Square brackets hold non-standard residues; d marks the D form. Peptide text beside a SMILES is read from it. X1 = CCCCCCOC(=O)N=C(NCCC[C@@H](N[*:1])C(=O)[*:2])NC(=O)OCCCCCC; NMeV = CN[C@H](C(=O)O)C(C)C; dNMeA = CN[C@H](C)C(=O)O

Assays:
[1] = in vivo; cited from earlier work
physchem = settings: pH 7.4, LogD, pH 7.4, reported value (mean or bound)
[2] = Pooled Human Liver Microsome assay; type: in vitro ADME
Description: Peptide 12 P was subjected to additional in vitro assay to evaluate the involvement of liver metabolism using the Pooled Human Liver Microsome assay. Liver microsomes are subcellular particles derived from the endoplasmic reticulum of hepatic cells. These microsomes are a rich source of drug metabolizing enzymes, including cytochrome P-450. Microsome pools from various sources are useful in the study of xenobiotic metabolism and drug interactions. […] The presence of ketokonazole inhibits the metabolism by the liver enzymes in some degree. However, Incubating peptide 12P with self-assembling pro-nano lipospheres (PNL), led to much better inhibition of cytochromes P-450.

[3] = Pharmacokinetic study in rats after oral administration; type: in vivo, Wistar rats; settings: rat
Procedure: In Vivo Studies. Male Wistar rats (Harlan, Israel), 275-300 g in weight, were used for all surgical procedures. Animals were anesthetized for the period of surgery by intraperitoneal injection of 1 mL/kg of ketamine/xylazine solution (9:1), placed on a heated surface, and maintained at 37° C. (Harvard Apparatus Inc., Holliston, MA). An indwelling cannula was placed in the right jugular vein of each animal for systemic blood sampling, by a method described before. The cannula was tunneled beneath the skin and exteriorized at the dorsal part of the neck. After completion of the surgical procedure, the animals were transferred to cages to recover overnight (12-18 h). During this recovery period, food but not water was deprived. Throughout the experiment, free access to food was available 4 h post oral administration. Animals were randomly assigned to the different experimental groups. […] Dispersed 12P SNEDDS (5 mg/kg) was administered to the animals by oral gavage (n=3). Systemic blood samples (0.35 mL) were taken at 5 min predose, 20, 40, 60, 90, 180, 240, and 360 min postdose. To prevent dehydration, equal volumes of physiological solution were administered to the rats following each withdrawal of blood sample. Plasma was separated by centrifugation (5322 g, 10 min) and stored at −20° C. pending analysis. In the 12P pharmacokinetic study, the parent peptide, 12, was analytically determined.
Pharmacokinetic Analysis. The area under the plasma concentration-time curve (AUC) was calculated by using the trapezoidal rule with extrapolation to infinity by dividing the last measured concentration by the elimination rate constant (kel). The elimination rate constant values were determined by a linear regression analysis using the last points on the logarithmic plot of the plasma concentration versus the time curve. Pharmacokinetic parameters, such Tmax, Cmax, clearance (CL), volume of distribution (V), and bioavailability, were calculated using noncompartmental analysis.
Analytical Methods. Plasma or BBMV samples were spiked with metoprolol (1.5 μg/mL) as an internal standard. ACN was added to each sample (2:1) and vortex-mixed for 1 min. The samples were then centrifuged (14 635 g, 10 min), and the supernatant was transferred to fresh glass tubes and evaporated to dryness (Vacuum Evaporation System, Labconco, Kansas City, MO, USA). Then, the glass tubes were reconstituted in 80 μL of mobile phase and centrifuged a second time (14 635 g, 10 min). The amount of the compounds was determined using an HPLC-MS Waters 2695 Separation Module, equipped with a Micromass ZQ detector. The resulting solution was injected (10 μL) into the HPLC system. The system was conditioned as follows: for parent drug peptides (including 12), a Kinetex 2.6 μm HILIC 100 Å, 100 mm×2.1 mm column (Phenomenex, Torrance, CA, USA), an isocratic mobile phase, and an acetonitrile:water:ammonium acetate buffer 50 mM (70:10:20, v/v/v) was used; and for the prodrug peptides (including 12P), a Luna (Phenomenex) 3 μm C8 100 Å, 100 mm×2.0 mm column and an isocratic mobile phase of ACN:water supplemented with 0.1% formic acid (70:30, v/v) and a flow rate of 0.2 mL/min at 25° C. was used. The limit of quantification for all of the peptides and prodrugs was 25 ng/mL.
The pharmacokinetic in-vivo study allows a further evaluation of the prodrug concept in the whole animal. The PK studies were performed in conscious Wistar male rats. An indwelling cannula was implanted in the jugular vein 24 hours before the PK experiment to allow full recovery of the animals from the surgical procedure. Animals (n=4) received either an IV bolus dose or oral dose of the investigated compound. Blood samples (with heparin, 15 U/ml) were collected at several time points for up to 6 hours post administration and was assayed by HPLC-MS method. Non-compartmental pharmacokinetic analysis was performed using WinNonlin software.

CYP3A4 = test: Enzymatic inhibition study in isolated rat CYP3A4 microsomes; type: in vitro ADME; settings: rat, pooled rat CYP3A4 microsomes, pH 7.4; with ketoconazole; 60 min; read-out: concentration remaining after incubation, with ketoconazole
rat CYP3A4 microsomes = test: as above; type: in vitro ADME; settings: 60 min
[4] = Metabolic stability in rat plasma; type: in vitro ADME; settings: 37° C., up to 90 minutes
Procedure: The enzymatic reactions were performed as follows: 2 mM stock solutions of the tested compounds were diluted with serum or purified brush border membrane vesicles (BBMVs) solution to a final concentration of 0.5 mM. During incubation at 37° C. samples were taken for a period of 90 minutes. The enzymatic reaction was stopped by adding 1:1 v/v of ice cold acetonitrile and centrifuge (4000 g, 10 min) before analysis. Preparation of BBMVs: The BBMVs was prepared from combined duodenum, jejunum, and upper ileum (male Wistar rats) by a Ca^++ precipitation method. Purification of the BBMVs was assayed using GGT, LAP and alkaline phosphatase as membrane enzyme markers
Peptides 12 and 12p were subjected to rat plasma and followed their degradation. Rat plasma is known to be rich with esterases.

[5] = Caco-2 permeability study (Examples 1, 2 and 4, Table 3); type: in vitro ADME, human; settings: Caco-2, unit inferred; read-out: Caco-2 A-to-B Papp (converted)
[6] = oral 5 mg/kg, peptide 12 measured in plasma, 12P given as dispersed 12P SNEDDS

logD at 1 h (physchem) | permeability in the PAMPA-GIT model system | relative bioavailability vs peptide 12 ([3]; after oral administration) | AUC [3, 6] [µg·min/mL] | Cmax [3, 6] [ng/mL] | F [3, 6] [%] | Kel [3, 6] [min⁻¹] | Tmax, Median (range) [3, 6] | remaining at 1 h, 1 µM (CYP3A4) [%] | concentration remaining after incubation, alone (rat CYP3A4 microsomes; 12P alone) [%] | concentration remaining after incubation, with SNEDDS (rat CYP3A4 microsomes; dispersed 12P SNEDDS) [%] | metabolic stability in rat plasma, in words [4] | Papp A→B [5] [×10⁻⁶ cm/s] | Papp (AB), replicate 1 (Caco-2 cells) | SMILES | half live in man [1] [h] | metabolism by Pooled Human Liver Microsomes, in words [2]
< -1 | low permeability | – | – | – | – | – | – | – | – | – | – | – | – | CC(C)[C@H]1C(=O)N[C@@H](CCCN=C(N)N)C(=O)NCC(=O)N[C@@H](CC(=O)O)C(=O)N[C@H](Cc2ccccc2)C(=O)N1C [Cilengitide, cyclo(RGDf-(NMe)V)] | 4 | –
– | – | about 70 fold | 216.9 ± 75.6 | 1993 ± 967 | 43.8 ± 14.9 | 0.009 ± 0.0001 | 20 (20-60) min | 67 ± 3.61 | 14.0±4.06 | 102.2±19.7 | degraded | 0.785 | – | CCCCCCOC(=O)N=C(NCCC[C@@H]1NC(=O)[C@@H](C)N(C)C(=O)[C@H](C)N(C)C(=O)[C@H](C)NC(=O)[C@H](CC(=O)OC)NC(=O)CNC1=O)NC(=O)OCCCCCC [Peptide 12P, c(*aR(Hoc)2GD(OMe)A*A)] | – | substrate for P-gp efflux system and cytochromes P-450
– | > -5 | – | – | – | – | – | – | – | – | – | – | – | 0.1 10^−6 cm/s | CCCCCCOC(=O)N=C(NCCC[C@H]1NC(=O)[C@H](C(C)C)N(C)C(=O)[C@@H](C)N(C)C(=O)[C@@H](C)NC(=O)[C@@H](CC(=O)OC)NC(=O)CNC1=O)NC(=O)OCCCCCC [#29P*] (cyclo(G[dD](OMe)[dA][dNMeA][NMeV][X1])) | – | –
